“Also recorded” adds a separate entry of the source. Marks after values point to notes of the source that are not given here.
What was measured:
[1] = system: rat chronic constriction injury model of neuropathic pain; assay: Rat chronic constriction injury model of neuropathic pain (von Frey mechanical allodynia); assay type: in vivo; settings: for in vivo activity in a rat model of neuropathic pain: dose not stated
Text: The (S)- and the (R)-enantiomer of AV1013 were each evaluated in a rat chronic constriction injury model of neuropathic pain (see, Ledeboer et. al., Neuron Glia Biology, (2006), p 279-291), to determine whether differences in their activity could be observed.
To induce allodynia, male Sprague-Dawley rats underwent chronic constriction injury (CCI) to the sciatic nerve as described by Bennett and Xie, Pain 1988; 33(1):87-107. The plantar surface of the hind paws was stimulated with von Frey filaments (Stoelting) to induce a withdrawal response by blinded personnel. The bending force of fiber required to induce a 50% withdrawal response was calculated following CCI surgery (pre-dosing baseline).
Allodynic rats (N=5-6), received an oral administration of (S)-AV1013 (25 mg/kg), AV1013-R (100 mg/kg) or vehicle. Two hours post-dosing, 50% paw withdrawal threshold was determined by blinded testers using von Frey filaments. The 50% withdrawal threshold prior to CCI surgery, pre-dosing (10 days post-surgery), and 2 hours post-dosing are plotted in FIG. 3.

[2] = Chiral and chemical stability in solution and on storage; assay type: physicochemical
Text: Without ascribing to any particular theory, the present inventors believe that the facile separation of enantiomers using the N-protected racemate of AV1013 is probably due to the greater stability of the racemate as well as the separate enantiomers in protected form. […] Unstability also stems from the ability of the free base to self condense. Because self-condensation is promoted in concentrated solutions, it is desirable to avoid highly concentrated solutions of the free base form of optically active AV1013. Likewise, the free base form of racemic AV1013 or its hydrochloride salt are also unstable, precluding their use as precursors to obtaining (S)-AV1013 as a free base or its hydrochloride salt in high yield and/or high purity.
Thus, it is often desirable to re-purify the de-protected product using purification techniques known in the art. For example, any one or more of the methods described above for separating chiral molecules, such as, chromatography (e.g., HPLC, GC, and SFC), crystallization, fractional crystallization, and the like may be used for re-purification. An exemplary method is recrystallization. Purification by recrystallization allows separation of the desired (S)-enantiomer in high purity, such that the overall reaction sequence including isolation of the desired (S)-enantiomer requires only a single chromatographic step (i.e., the chiral separation). Recrystallization can be carried out in any of a number of single or mixed solvent systems including alcohols, ethers, esters, nitriles, halogenated hydrocarbons, amides and aqueous mixtures thereof. Suitable solvents include methanol, ethanol, propanol, iso-propanol, acetone, tetrahyrofuran, methyl ethyl ketone, methyl isobutyl ketone, ethyl acetate, amyl acetate, acetonitrile, diethyl ether, methyl tert-butyl ether, dichloromethane, dichloroethane, chloroform, dimethylformamide, and combinations thereof. Illustrative mixed solvent systems used to recrystallize (S)-AV1013 are iso-propanol/methyl tert-butyl ether and ethanol/methyl tert-butyl ether.
The five-step route provided a 15% overall yield of (S)-AV1013.HCl. The chiral separation, by SFC chromatography, is the only chromatographic step required. Hydrolysis of the N-protected (S)-AV1013, followed by recrystallization from iso-propanol/methyl tert-butyl ether provided (S)-AV1013.HCl in greater than 99% chemical purity and greater than 97% S-enantiomer (greater than 94% enantiomeric excess (ee)) by chiral HPLC, as determined from the equation ee=[|R−S^51÷(R+S)]×100 ee=[|R−S|÷(R+S)]×100. […] Even under optimal storage and handling conditions to minimize exposure to moisture, a small degree of racemization (i.e., approximately 2%) was observed. Recrystallization was effective to improve enantiomeric purity to arrive at a product having an illustrative chiral purity as described above. […] The recrystallized (S)-AV 1013.HCl contained approximately 25 mole percent alcohol (less than about 10% by weight) even when dried at 50° C. Thus, it appears that the resultant product is formed as a solvate under the recrystallization and drying conditions employed.

Rolipram binding site = assay: Inhibition of binding at the Rolipram binding site; settings: 10 uM
formalin paw model = assay: Inflammatory pain model (formalin paw model) in mice; assay type: in vivo; settings: mice, 300 mg/kg p.o. 60 min before the test
Method: The model employed is described in detail by Wheeler-Aceto et al (Psychopharmacology, 104, p 35-44, (1991)). Briefly, mice were given an intraplantar injection of 5% formalin (25 μl) into the posterior left paw. […] Mice were briefly observed at 1 minute intervals between 15 and 50 minutes after the injection of formalin and the number of times mice were observed licking the injected paw was recorded. 10 mice were studied in each group. The test was performed blind.
AV1013-S was evaluated at 3 doses (10, 25 and 50 mg/kg), administered p.o. 60 minutes before the test (i.e. 45 minutes before formalin), and compared with a vehicle control group. Gabapentin (300 mg/kg p.o.), administered under the same experimental conditions, was used as reference substance. The experiment therefore included 5 groups.
Data were analyzed by comparing treated groups with vehicle control using unpaired Mann-Whitney U tests.

[3] = biological target: T1, rhMIF (recombinant human Macrophage migration Inhibitory Factor) (Homo sapiens, UniProt P14174); assay: MIF-induced migration of human peripheral blood monocytes (PBMCs); assay type: cell-based; settings: rhMIF 90 nM, dilution series of inhibitor
T1 sequence (P14174 2-115 limits assumed): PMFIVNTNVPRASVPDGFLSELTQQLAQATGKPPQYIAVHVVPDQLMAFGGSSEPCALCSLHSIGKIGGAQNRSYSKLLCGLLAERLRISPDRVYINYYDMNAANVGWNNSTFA
Method: The chemo attractant activities of rhMIF (recombinant human Macrophage migration Inhibitory Factor) and the effect of inhibitors were measured using human peripheral blood monocytes (PBMCs) isolated from whole blood by centrifugation on Histopaque-1077 (Sigma). The cells were washed in RPMI-1640, diluted to 1×10^6 cells/ml and analyzed immediately. These assays were carried out in 24 well tissue culture plates utilizing 8.0 μm cell culture inserts (Falcon). Recombinant hMIF (90 nM), diluted in RPMI was placed in the cells of a 24 well plate with or without inhibitor (10-fold molar excess or dilution series) and allowed to incubate for 30 min at 37° C., 5% CO2. Washed human monocytes were added to the upper chamber of 8.0 μm cell culture inserts and allowed to incubate for 3 hrs at 37° C., 5% CO2. Cells that migrate through the membrane were fixed in methanol and stained with Geimsa, prior to cell counting using light microscopy.
Results are expressed as the mean number of cells counted per high power field for each of two replicates to obtain statistically significant data. (Legend: −Star=no human MIF, Skull=no human MIF+10 uM (S)-AV1013. See FIGS. 5A and 5B.

[4] = Rat pharmacokinetics of the enantiomers after oral dosing of racemic AV1013; assay type: in vivo
Method: Three male Sprague-Dawley rats were dosed orally via gavage with 25 mg/kg racemic AV1013 dissolved in water. Serial blood samples were collected from the tail vein at 5, 15, and 30 min, 1, 3, and 6 hours post dosing. Samples were processed for plasma via centrifugation and plasma samples were stored frozen prior to analysis.
(§1) A sensitive and specific chiral HPLC/MS/MS bioanalytical method for the detection of (S)-AV1013 and (R)-AV1013 enantiomers in rat and dog plasma was utilized. AV1013 enantiomers and the internal standard (AV1040, an analog of AV1013) were isolated from plasma by protein precipitation induced by acetonitrile. After centrifugation to sediment the proteins, the supernatant fractions were analyzed by high performance liquid chromatography (LC) in conjunction with a triple quadrupole mass spectrometer that used electrospray ionization in tandem with positive ionization (MS/MS) according to the conditions below. The LLOQ (lower level of quantitation) was typically <3 ng/mL.
(§2) Analysis of pharmacokinetic parameters was performed for each enantiomer via LC/MS bioanalytics and WinNonlin™ analysis (version 4.0.1; Pharsight Corp., Mountain View, Calif.), commercial software designed for the analysis of PK data. The PK modeling was based on a non-compartmental model with gradual input into the central compartment. Computation of the area under the curve (AUC) was based on the sum of trapezoidal areas for the plotted plasma concentration-time data. AUC and associated parameters were estimated by log-linear regression analysis of the terminal phase.

[5] = Dog pharmacokinetics of the enantiomers after oral dosing of racemic AV1013; assay type: in vivo
Method: Three male beagle dogs were dosed orally with 10 mg/kg racemic AV1013 via gavage. AV1013 was dissolved in water at 5 mg/ml and dosed via gavage at a volume of 2 ml/kg. Blood samples were collected via the jugular vein at 5, 15 and 30 minutes, 1, 2, 4, 6, 8, and 24 hours post dosing.
as §1, §2

[6] = oral 25 mg/kg racemic AV1013, plasma
[7] = oral dosing of racemate, rounded values
[8] = beagle dog, oral 10 mg/kg racemic AV1013, plasma
[9] = dog, oral dosing of racemate, rounded values

For `CC(N)C(=O)c1c(C(C)C)nn2ccccc12` (racemic) [AV1013, 2-amino-1-(2-isopropylpyrazolo[1,5-a]pyridin-3-yl)propan-1-one], the “in vivo activity in a rat model of neuropathic pain” value [1] was “significant in vivo activity”, the “stability / racemization in solution” value ([2]; free base (or hydrochloride salt where stated), in solution) was “unstable” and the “inhibition of the Rolipram binding site” value (Rolipram binding site) was 43%.

With `NCC1(CC(=O)O)CCCCC1` [Gabapentin, reference compound] the “% Change from Control” value (formalin paw model) was −83% and the “Licking Score (Mean +/− SEM)” value (formalin paw model; p < 0.01) was 2.6 +/− 0.8 *.

For `CC(C)c1nn2ccccc2c1C(=O)[C@H](C)N.Cl` [(S)-AV1013.HCl, (S)-2-Amino-1-(2-isopropylpyrazolo[1,5-a]pyridin-3-yl)propan-1-one hydrochloride], the “degree of racemization on storage” value ([2]; hydrochloride salt, optimal storage and handling conditions to minimize exposure to moisture) was “approximately 2%”.

In the case of `CC(C)c1nn2ccccc2c1C(=O)[C@@H](C)N` [(R)-AV1013], the “in vivo activity in a rat model of neuropathic pain” value [1] is reported as “little or no in vivo activity”, the “attenuation of mechanical allodynia (50% paw withdrawal threshold)” value ([1]; rat CCI, oral 100 mg/kg, 2 hours post-dosing) is reported as “essentially no activity” and the “antagonism of MIF-induced cell migration” value [3] is reported as “antagonize MIF-induced macrophage migration in a dose-dependent fashion; also recorded: antagonize MIF-induced mononuclear cell migration in a similar dose dependent fashion”. For the same compound, the AUC last [4, 6] was 340 ng·h/mL, the Cmax [4, 6] was 190 ng/mL and the “calculated area under the curves (AUC)” value [4, 7] was 300 ng·h/mL. For the same compound, the “mean peak plasma levels (Cmax)” value [4, 7] was 200 ng/mL, the AUC last [5, 8] was 7640 ng·h/mL and the Cmax [5, 8] was 1140 ng/mL. For the same compound, the “calculated area under the curves (AUC)” value [5, 9] was 7600 ng·h/mL and the “mean peak plasma levels (Cmax)” value [5, 9] was 1100 ng/mL.
